Earlier results as cited in patent publication US6969532B2, “Compounds inhibiting COX-2 and iNOS promoter activities” (priority 2000, dated 2005).

Test system: human adenomatous polyposis
Conditions: randomized clinical trial

Cc1ccc(-c2cc(C(F)(F)F)nn2-c2ccc(S(N)(=O)=O)cc2)cc1 [Celebrex]
extent of polyp reduction: about 30%
